In brackets after ≈: the same amount, converted by molar mass. Each block holds one compound with its values, some of them ahead of it.
Experiments:
Experiment in all cases: ≥ marks a high value that may be exact or a test limit, other limits are often not marked, values filed in µg/mL are converted to µM
[1] = tested on: Batrachochytrium dendrobatidis
Leuconostoc lactis = tested on: Leuconostoc lactis
[2] = tested on: Micrococcus luteus ATCC 9341
Streptococcus uberis = tested on: Streptococcus uberis
[3] = tested on: Staphylococcus epidermidis ATCC 14990
[4] = tested on: Enterococcus faecalis PCM 2673
[5] = tested on: Staphylococcus aureus ATCC 25923
[6] = tested on: Pseudomonas aeruginosa ATCC 9027
[7] = tested on: Candida albicans ATCC 10231
[8] = tested on: Escherichia coli ATCC 25922
[9] = tested on: Staphylococcus aureus ATCC 43300
[10] = tested on: Staphylococcus aureus ATCC 29213
Salmonella sp. = tested on: Salmonella sp.
[11] = tested on: Salmonella enterica subsp. enterica serovar Enteritidis
Yersinia enterocolitica = tested on: Yersinia enterocolitica
Escherichia coli = tested on: Escherichia coli
[12] = tested on: Salmonella typhimurium CCARM 8009
[13] = tested on: Pseudomonas aeruginosa CCARM 2095
[14] = tested on: Escherichia coli CCARM 1229
[15] = tested on: Pseudomonas aeruginosa KCTC 1637
[16] = tested on: Staphylococcus aureus KCTC 1621
[17] = tested on: Enterococcus faecalis KCTC 2011
[18] = tested on: Acinetobacter baumannii CCARM 12035
[19] = tested on: Salmonella typhimurium KCTC 1926
[20] = tested on: Escherichia coli KCTC 1682
[21] = tested on: Bacillus subtilis KCTC 3068
[22] = tested on: Staphylococcus haemolyticus 527
Bacillus subtilis 168 HT = tested on: Bacillus subtilis 168 HT
[23] = tested on: Escherichia coli K12 MG1655
[24] = tested on: Staphylococcus aureus ST88
[25] = tested on: Pseudomonas aeruginosa ATCC 27853
[26] = tested on: Bacillus subtilis ATCC 6051
[27] = tested on: Escherichia coli NEB5alpha

Structure (SMILES): CC[C@H](C)[C@H](NC(=O)[C@H](CCCCN)NC(=O)[C@@H](NC(=O)[C@H](CCC(N)=O)NC(=O)[C@@H](N)CCCN=C(N)N)[C@@H](C)CC)C(=O)N[C@@H](Cc1c[nH]c2ccccc12)C(=O)N[C@@H](CCCN=C(N)N)C(=O)N[C@@H](CCCN=C(N)N)C(=O)N[C@@H](CCSC)C(=O)N[C@@H](CCCCN)C(=O)N[C@@H](Cc1c[nH]c2ccccc12)C(=O)N[C@@H](CCCCN)C(=O)N[C@@H](CCCCN)C(N)=O [RQIKIWRRMKWKK]
- MIC [9]: 13.5 µM (≈ 25 µg/mL)
- MIC [10]: 26.9 µM (≈ 50 µg/mL)
- MIC (Salmonella sp.): 2.69 µM (≈ 5 µg/mL)
- MIC [11]: 6.73 µM (≈ 12.5 µg/mL)
- MIC (Yersinia enterocolitica): 3.37 µM (≈ 6.25 µg/mL)
- MIC [8]: 3.37 µM (≈ 6.25 µg/mL)
- MIC (Escherichia coli): 3.01 µM (≈ 5.59 µg/mL)

Structure (SMILES): CC[C@H](C)[C@H](NC(=O)[C@H](Cc1cnc[nH]1)NC(=O)[C@@H](NC(=O)[C@H](CC(C)C)NC(=O)[C@@H](NC(=O)[C@@H](NC(=O)[C@H](CCCN=C(N)N)NC(=O)[C@H](CC(C)C)NC(=O)[C@H](Cc1c[nH]c2ccccc12)NC(=O)[C@H](CO)NC(=O)[C@H](CCCCN)NC(=O)[C@@H](NC(=O)[C@H](CC(C)C)NC(=O)[C@H](Cc1cnc[nH]1)NC(=O)[C@@H](NC(=O)[C@@H](NC(=O)[C@@H](NC(=O)[C@H](Cc1cnc[nH]1)NC(=O)[C@H](CC(C)C)NC(=O)[C@H](CCC(N)=O)NC(=O)[C@H](CCCCN)NC(=O)[C@H](Cc1ccccc1)NC(=O)[C@H](CO)NC(=O)[C@H](CCCCN)NC(=O)CNC(=O)[C@H](CCCCN)NC(=O)[C@@H](N)CCCCN)[C@@H](C)CC)[C@@H](C)CC)C(C)C)C(C)C)[C@@H](C)O)[C@@H](C)CC)[C@@H](C)O)C(=O)O [KKGKSFKQLHIIVHLVKSWLRTILTHI]
- MIC [22]: 10 µM (≈ 32.2 µg/mL)
- MIC (Bacillus subtilis 168 HT): 10 µM (≈ 32.2 µg/mL)
- MIC [23]: 10 µM (≈ 32.2 µg/mL)
- MIC [24]: 19.9 µM (≈ 64.2 µg/mL)

Structure (SMILES): CC[C@H](C)[C@H](NC(=O)[C@H](CCC(N)=O)NC(=O)[C@@H](N)CCCN=C(N)N)C(=O)N[C@@H](CCCN=C(N)N)C(=O)N[C@@H](Cc1c[nH]c2ccccc12)C(=O)N[C@@H](CCC(N)=O)C(=O)N[C@@H](CCCN=C(N)N)C(N)=O [RQIRWQR]
- MIC [9]: > 50 µM
- MIC [10]: > 50 µM
- MIC (Salmonella sp.): ≥ 50 µM
- MIC [11]: ≥ 50 µM
- MIC (Yersinia enterocolitica): ≥ 50 µM
- MIC [8]: > 50 µM
- MIC [25]: > 50 µM
- MIC (Escherichia coli): > 50 µM

Structure (SMILES): CC[C@H](C)[C@H](NC(=O)[C@H](C)NC(=O)[C@H](Cc1ccccc1)NC(=O)[C@H](CC(C)C)NC(=O)CN)C(=O)N[C@H](C(=O)N[C@@H](CCCCN)C(=O)N[C@@H](CCCCN)C(=O)N[C@H](C(=O)N[C@@H](C)C(=O)N[C@@H](CCC(=O)O)C(=O)N[C@@H](CO)C(=O)N[C@@H](Cc1ccccc1)C(N)=O)[C@@H](C)CC)[C@@H](C)CC [GLFAIIKKIAESF]
- MIC [4]: 22.3 µM (≈ 32 µg/mL)
- MIC [5]: 11.1 µM (≈ 16 µg/mL)
- MIC [6]: 44.5 µM (≈ 64 µg/mL)
- MIC [7]: 44.5 µM (≈ 64 µg/mL)
- MIC [8]: 5.57 µM (≈ 7.99 µg/mL)

More lines, main results first:

- MIC [1]: 25.1 µM (≈ 36 µg/mL)
Structure (SMILES): CC[C@H](C)[C@H](NC(=O)CNC(=O)[C@H](CO)NC(=O)[C@H](CC(C)C)NC(=O)[C@@H](NC(=O)[C@H](CCCN=C(N)N)NC(=O)CNC(=O)[C@@H](NC(=O)[C@H](CC(C)C)NC(=O)[C@@H]1CCCN1C(=O)[C@H](CC(C)C)NC(=O)[C@@H](N)Cc1c[nH]c2ccccc12)[C@@H](C)CC)C(C)C)C(=O)N[C@@H](CC(C)C)C(N)=O [WLPLIGRVLSGIL]

- MIC (Leuconostoc lactis): 12 µM (≈ 26.3 µg/mL)
- MIC [2]: ≥ 100 µM
- MIC (Streptococcus uberis): ≥ 50 µM
- MIC [3]: ≥ 100 µM
Structure (SMILES): CC[C@H](C)[C@H](NC(=O)[C@H](CC(C)C)NC(=O)[C@H](Cc1cnc[nH]1)NC(=O)CNC(=O)[C@@H](NC(=O)[C@@H](NC(=O)CNC(=O)[C@@H](NC(=O)[C@@H](NC(=O)[C@H](CCCCN)NC(=O)[C@@H]1CCCN1C(=O)[C@H](CC(C)C)NC(=O)[C@H](Cc1ccccc1)NC(=O)[C@H](CO)NC(=O)[C@H](CC(C)C)NC(=O)[C@H](CC(C)C)NC(=O)CN)C(C)C)[C@@H](C)CC)C(C)C)[C@@H](C)CC)C(=O)N[C@@H](Cc1cnc[nH]1)C(=O)N1CCC[C@H]1C(=O)N1CCC[C@H]1C(=O)N[C@@H](CO)C(=O)O [GLLSFLPKVIGVIGHLIHPPS]

- MIC [4]: ≥ 89 µM
- MIC [5]: > 356 µM
- MIC [6]: > 356 µM
- MIC [7]: 356 µM (≈ 512 µg/mL)
- MIC [8]: 356 µM (≈ 512 µg/mL)
Structure (SMILES): CC[C@H](C)[C@H](NC(=O)[C@H](CC(=O)O)NC(=O)[C@H](Cc1ccccc1)NC(=O)[C@H](CC(C)C)NC(=O)CN)C(=O)N[C@H](C(=O)N[C@@H](CCCCN)C(=O)N[C@@H](CCCCN)C(=O)N[C@@H](C)C(=O)N[C@@H](C)C(=O)N[C@@H](CCC(=O)O)C(=O)N[C@@H](CO)C(=O)N[C@@H](Cc1ccccc1)C(N)=O)[C@@H](C)CC [GLFDIIKKAAESF]

- MIC [12]: 2 µM (≈ 5.31 µg/mL)
- MIC [13]: 2 µM (≈ 5.31 µg/mL)
- MIC [14]: 2 µM (≈ 5.31 µg/mL)
- MIC [15]: 2 µM (≈ 5.31 µg/mL)
- MIC [16]: 16 µM (≈ 42.5 µg/mL)
- MIC [17]: ≥ 64 µM
- MIC [18]: 4 µM (≈ 10.6 µg/mL)
- MIC [19]: 2 µM (≈ 5.31 µg/mL)
- MIC [20]: 1 µM (≈ 2.65 µg/mL)
- MIC [21]: 8 µM (≈ 21.2 µg/mL)
Structure (SMILES): CC[C@H](C)[C@H](NC(=O)CNC(=O)[C@H](CC(=O)O)NC(=O)[C@H](CCCN=C(N)N)NC(=O)[C@@H](NC(=O)[C@H](CC(N)=O)NC(=O)[C@H](CCCN=C(N)N)NC(=O)CNC(=O)[C@@H](NC(=O)[C@H](CCCCN)NC(=O)[C@H](CCC(=O)O)NC(=O)[C@@H](NC(=O)[C@H](CCCCN)NC(=O)[C@H](CCCCN)NC(=O)[C@H](Cc1c[nH]c2ccccc12)NC(=O)[C@@H](NC(=O)[C@H](CCCCN)NC(=O)[C@H](Cc1ccccc1)NC(=O)[C@@H](N)CCCN=C(N)N)[C@@H](C)CC)[C@@H](C)CC)C(C)C)C(C)C)C(=O)N[C@H](C(=O)N[C@@H](CCCCN)C(=O)N[C@@H](C)C(N)=O)[C@@H](C)CC [RFKIWKKIEKVGRNVRDGIIKA]

- MIC (Bacillus subtilis 168 HT): 22.4 µM (≈ 32.1 µg/mL)
- MIC [23]: ≥ 100 µM
- MIC [24]: ≥ 100 µM
Structure (SMILES): CC[C@H](C)[C@H](NC(=O)[C@H](CC(C)C)NC(=O)[C@@H](N)C(C)C)C(=O)N[C@@H](CCCN=C(N)N)C(=O)NCC(=O)N[C@@H](CC(C)C)C(=O)N[C@H](C(=O)N[C@@H](Cc1cnc[nH]1)C(=O)N[C@@H](CCSC)C(=O)N[C@@H](CC(C)C)C(=O)N[C@@H](CCCN=C(N)N)C(=O)NCC(=O)NCC(=O)O)[C@@H](C)CC [VLIRGLIHMLRGG]
- MIC [22]: ≥ 100 µM

- MIC [26]: ≥ 1000 µM
- MIC [27]: ≥ 1000 µM
Structure (SMILES): CC[C@H](C)[C@H](NC(=O)[C@H](CC(N)=O)NC(=O)[C@H](CCC(N)=O)NC(=O)[C@@H](N)Cc1cnc[nH]1)C(=O)NCC(=O)N[C@@H](CO)C(=O)N[C@@H](CO)C(=O)N[C@@H](CO)C(=O)N[C@@H](CO)C(=O)N1CCC[C@H]1C(=O)N[C@@H](CC(=O)O)C(=O)N[C@H](C(=O)N[C@@H](Cc1ccc(O)cc1)C(=O)O)[C@@H](C)CC [HQNIGSSSSPDIY]

Reference: DBAASP
